The structures appear in SMILES notation.

This assay in a line: DPPH assay for antioxidant activity (radical scavenging). Particulars: 0.1 mM DPPH solution, absorbance at 517 nm; masses greater than or equal to 40 μg. It is filed as biochemical. The procedure:
2,2-diphenyl-1-(2,4,6-trinitrophenyl) hydrazyl (DPPH) radical scavenging activity of BKF melanin was measured according to the procedure described in the literature. […] Afterwards, the UV-vis absorbance spectra were collected to monitor the decrease in the absorbance at 517 nm due to quenching of DPPH radical by the BKF melanin. Similar volumes of BKF melanin solution were added to pure ethanol (instead of 0.1 mM DPPH solution) to measure the absorbance of BKF melanin itself. Afterwards, the scavenging activity (or antioxidant activity) [I] was calculated using Equation 1, where Ac is the absorbance of DPPH solution without any BKF melanin, Ai is the absorbance of DPPH solution mixed with varying amounts of BKF melanin, and Aj is the absorbance of BKF melanin itself without DPPH solution. […]
The antioxidant activity of BKF melanin was investigated using the DPPH assay described above. The scavenging activity was determined by monitoring the decrease in absorbance of DPPH at 517 nm, since the DPPH is reduced through an electron transfer from the antioxidant material. […] As the ascorbic acid concentration increases from 0 to 60 μg, the absorbance at 517 nm decreases along with visual change in color from purple to yellow. The antioxidant activity (%) calculated using Equation 1 is plotted as a function of ascorbic acid mass in FIG. 3B. […]
In general terms: The DPPH test is a chemical assay of radical scavenging.

Turning to `O=C1O[C@H]([C@@H](O)CO)C(O)=C1O` [ascorbic acid], the “antioxidant activity (%), saturated value” was about 90%.

The values are drawn from patent US12595357B2, “Black knot melanin—a super-additive with UV absorbing and antioxidant properties” (The University of Akron, priority 2021, dated 2026).
